Results reported in US11207285B2, “Diabetes treatment regimens using alpha, alpha-substituted long-chain amphipathic carboxylates” (SYNDROMEX LTD., priority 2016, dated 2021).
Where “and” joins values, the source holds several entries; their conditions need not be identical. Identical values can stand only once.

How the values were obtained:
[1] = half-life in humans; type: in vivo
Source text: The half-life (T1/2) of Medica compounds in humans differs considerably from their half-life in model animals. […] This difference in half-life could not be expected, and is of considerable significance when designing a new treatment protocol for humans.

[2] = system: Type 2 Diabetes Mellitus (T2D) patients; assay: 4-week M16αα study in T2D patients, efficacy; type: in vivo, human; conditions: for Comp ISI / HP ISI / HbA1c Day 90 - extrapolated / IR / HbA1c Day 28: after
Source text: Exploratory, double-blind, randomized, placebo-controlled study, to evaluate the safety, efficacy and pharmacokinetics of 4-week M16αα treatment of Type 2 Diabetes Mellitus (T2D) patients. T2D patients were either non-treated or receiving ongoing treatment with metformin alone or in combination with other standard-of-care (SoC) oral or parenteral antidiabetic drug/s. T2D patients, non-treated or treated with SoC antidiabetic drugs as outlined below, were screened for eligibility (inclusion/exclusion according to criteria detailed below), followed by being randomly allocated to receive once daily either add-on M16αα (40 mg M16αα plus 130 mg microcrystalline cellulose in gelatin capsules) or add-on placebo (130 mg microcrystalline cellulose in gelatin capsules), in addition to the SoC anti-diabetic treatment they have been receiving regularly. One patient was not under SoC anti-diabetic drug treatment. Sixteen (16) patients were randomized to M16αα treatment and 3 patients were randomized to placebo treatment. Patients randomized to M16αα treatment were dosed for 28 days with add-on M16αα in double-blinded manner, followed by 4-week recovery period using add-on placebo in a single-blinded manner. Patients randomized to placebo treatment were dosed for 28 days with add-on placebo in double-blinded manner. Cohort 1 included 6 uncontrolled T2D patients (HbA1c>7.3%), 5 treated for their hyperglycemia by metformin only (patients 101, 102, 103, 105, 106), and one naïve patient (not under SoC anti-diabetic treatment, patient 108). Cohort 2 included 6 T2D patients (HbA1c>7.3%) (patients 202, 203, 205, 206, 207, 210) treated for their hyperglycemia by a variety of SoC anti-diabetic drug/s except insulin/insulin analogs (metformin plus sulphonylurea and/or DPP4 inhibitor and/or GLP1 analog and/or SGLT2 inhibitor). Cohort 3 included 4 T2D patients (HbA1c>7.3%) treated for their hyperglycemia by basal insulin analogs and a variety of anti-diabetic drugs (metformin and/or sulphonylurea and/or DPP4 inhibitor and/or GLP1 analog and/or SGLT2 inhibitor). During the study period the subjects underwent physical examination, clinical pathology, hematology, urinalysis, lipid profile, HbA1C, continuous glucose monitoring (CGM) and an oral glucose tolerance test (OGTT) (75 g glucose; glucose, insulin, c-peptide; 0, 30, 60, 120, 180 min) prior to dosing, upon end of M16αα treatment, and following the recovery period (EOS visit). HbA1c, Continuous glucose monitoring (CGMS), OGTT (Glucose/Insulin/C-peptide), HOMA, Hepatic Insulin Sensitization Index (HP ISI), Composite insulin sensitization index (Comp ISI), Insulin resistance (IR), plasma lipid profile (Triglycerides, Cholesterol, LDL-C, VLDL-C, HDL-C, non-HDL-C, apoB), hsCRP, Fibrinogen. All measured variables and derived parameters were listed individually and tabulated by descriptive statistics. For descriptive statistics summary tables were provided giving sample size, means, standard deviations and 95% CI (Confidence Interval) or frequency with percentage according to the scale of the variable. Regarding small sample size, non-parametric methods were conducted: Differences between end of drug dosing and baseline for each efficacy parameter were analyzed using the Wilkcoxon matched-pairs signed-ranks test. Differences between M16αα-treated and placebo groups were analyzed for each efficacy parameter using the Mann-Whitney two-sample U-test. Drug: 40 mg 2,2,15,15-tetramethylhexadecane-dioic acid (M16αα) per day, in a gelatin capsule. This daily dose of M16αα is based on safety and PK considerations in a previous, single-dose study in healthy volunteers and pre-clinical data. Administration: oral, before breakfast, with 240 ml water, for both drug and placebo. M16αα or placebo were administered orally for 28 consecutive days, followed by additional 28 days of placebo. End of Study (EOS) visit took place about 4 weeks after last dose of M16αα administered. […]

[3] = molecular target: Forkhead box O1 (FoxO1) (Homo sapiens, UniProt Q12778); assay: transcriptional activity of FoxO1
Sequence of Forkhead box O1 (FoxO1) (Q12778 whole entry, species assumed): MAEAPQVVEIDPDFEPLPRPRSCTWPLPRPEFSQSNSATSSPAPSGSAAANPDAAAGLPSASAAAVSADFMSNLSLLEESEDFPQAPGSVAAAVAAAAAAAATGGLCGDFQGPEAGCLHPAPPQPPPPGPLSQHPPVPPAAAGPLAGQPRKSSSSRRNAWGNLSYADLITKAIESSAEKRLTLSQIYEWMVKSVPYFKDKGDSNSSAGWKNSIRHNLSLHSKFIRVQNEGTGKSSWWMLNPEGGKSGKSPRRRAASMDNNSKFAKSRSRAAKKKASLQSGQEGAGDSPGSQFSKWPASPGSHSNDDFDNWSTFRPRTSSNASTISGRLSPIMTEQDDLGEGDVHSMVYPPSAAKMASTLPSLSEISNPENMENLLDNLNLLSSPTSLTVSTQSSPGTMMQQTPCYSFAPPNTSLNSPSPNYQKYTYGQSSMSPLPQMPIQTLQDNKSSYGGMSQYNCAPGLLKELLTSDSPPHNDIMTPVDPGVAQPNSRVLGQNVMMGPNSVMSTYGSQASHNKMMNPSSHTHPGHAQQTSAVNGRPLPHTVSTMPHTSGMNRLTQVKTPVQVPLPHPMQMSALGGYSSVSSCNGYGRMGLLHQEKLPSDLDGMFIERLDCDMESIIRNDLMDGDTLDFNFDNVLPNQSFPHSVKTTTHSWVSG

[4] = system: animal models for T2D (e.g., rodents maintained on high-fat diet); assay: insulin sensitization, glucose lowering and energy expenditure in animal models for T2D; type: in vivo
[5] = system: animal models for T2D (e.g., db/db rats, rodents maintained on high-fat diet); assay: as above; type: in vivo
[6] = system: Sterol response element binding protein 1 & 2 (SREBP); assay: transcriptional activity of SREBP
[7] = Cohort 1 single patients 101, 102, 106 on metformin only, add-on 40 mg/day
[8] = Cohort 2 single patients 202, 205, 206 on SoC drugs except insulin, add-on 40 mg/day
[9] = Cohort 3 single patients 301-304 on basal insulin analogs and other drugs, add-on 40 mg/day
[10] = patient 108, no ongoing anti-diabetic treatment, 40 mg/day
[11] = baseline 1.0, all patients on add-on M16αα
[12] = estimated by linear extrapolation from 28 d
[13] = weighted average, all patients on add-on M16αα

CC(C)(CCCCCCCCCCCCC(C)(C)C(=O)O)C(=O)O [M16αα, 2,2,15,15-tetramethyl-hexadecane-1,16-dioic acid]
half-life (T1/2) [1]: 30 to 80 h
half-life ([1]; human, in vivo, as stated in PK evaluation, read-out: half-life): 1.25 to 3.33 days
Continuous glucose monitoring [CGM(<180 mg %)], Change in Baseline: Increase by ([2]; % of time with glucose lower than 180 mg %, baseline 71 ± 25%): Increase by 8.4%
insulin sensitizing activity compared with add-on pioglitazone ([2]; M16αα added-on to metformin): surpasses that reported for add-on Pio
diabetic profile ([2]; T2D patient not under anti-diabetic SoC, low dose): significantly improved diabetic profile
prospective glucose-lowering activity compared with SoC oral anti-diabetic drugs ([2]; add-on M16αα): surpasses those reported for current SoC oral anti-diabetic drugs
Comp ISI [2, 7]: 19.17 and 5.0 and 10.10
HP ISI [2, 7]: 9.5 and 2.3 and 2.1
HbA1c Day 90 - extrapolated [2, 7]: 5.3 and 5.9 and 5.4
IR [2, 7]: 0.4 and 0.6 and 0.5
HbA1c Day 28 ([2]; Cohort 1 single patients 101, 102, 106 on metformin only, add-on 40 mg/day oral 28 d): 6.7 and 6.9 and 6.8
Comp ISI [2, 8]: 2.2 and 4.7 and 5.5
HP ISI [2, 8]: 0.4 and 0.6 and 1.1
HbA1c Day 90 - extrapolated [2, 8]: 6.0 and 8.1 and 4.1
IR [2, 8]: 2.2 and 1.8 and 0.9
HbA1c Day 28 ([2]; Cohort 2 single patients 202, 205, 206 on SoC drugs except insulin, add-on 40 mg/day oral 28 d): 6.8 and 8.1 and 7.1
Comp ISI [2, 9]: 4.6 and 6.9 and 6.3
HP ISI [2, 9]: 0.79 and 0.88 and 1.33 and 1.41
IR [2, 9]: 1.4 and 1.1 and 0.8 and 0.7
HbA1c Day 28 ([2]; Cohort 3 single patients 301-304 on basal insulin analogs and other drugs, add-on 40 mg/day oral 28 d): 8.17 and 7.33 and 7.52 and 8.73
Comp ISI [2, 10]: 5.8
HP ISI [2, 10]: 1.6
HbA1c Day 90 - extrapolated [2, 10]: 7.6
IR [2, 10]: 0.6
HbA1c Day 28 ([2]; patient 108, no ongoing anti-diabetic treatment, 40 mg/day oral 28 d): 7.6
Composite insulin sensitization index (CompISI), Change in Baseline: Increase by [2, 11]: Increase by 2.04-fold
HOMA insulin resistance (HOMAIR), Change in Baseline: Increase by [2, 11]: Increase by 0.59-fold
Hepatic insulin sensitization index (HepISI), Change in Baseline: Increase by [2, 11]: Increase by 2.50-fold
HOMA % B, Change in Baseline: Decrease by ([2]; baseline 1.0, beta-cell rest): Decrease by 0.81-fold
Bodyweight, Change in Baseline: Decrease by ([2]; baseline 88 ± 9 kg): Decrease by 0.6 kg
Σglucose (OGTT 0, 30, 60, 120, 180 min), Change in Baseline: Decrease by ([2]; baseline 100, all patients on add-on M16αα): Decrease by 7.8%
Σc-peptide (OGTT 0, 30, 60, 120, 180 min), Change in Baseline: Decrease by ([2]; baseline 100, beta-cell rest): Decrease by 17%
Hypertension, Change in Baseline ([2]; baseline 136 ± 13/75 ± 7): Decrease in 5 patients
Fasting blood glucose (FBG), Change in Baseline: Decrease by ([2]; baseline 159 ± 56 mg/dL, all patients on add-on M16αα): Decrease by 11.7%
Plasma triglycerides, Change in Baseline: Decrease by ([2]; baseline 169 ± 95 mg/dL): Decrease by 18%
HbA1C (%) (Estimated 90 d), Change in Baseline: Decrease by [2, 12]: Decrease by 0.96-1.44%
HbA1C (Estimated 90 d), Change in Baseline: Decrease [2, 12]: (10.6-15.8 mmol/mol)
HbA1C (Estimated 90 d), Change in Baseline: Decrease as eAG [2, 12]: (eAG 28-42 mg/dL)
effectiveness as add-on drug ([2]; patients under anti-diabetic SoC): effective as an add-on drug
HbA1C (28 d), Change in Baseline: Decrease [2, 13]: (5.28 mmol/mol)
HbA1C (28 d), Change in Baseline: Decrease as eAG [2, 13]: (eAG 14 mg/dL)
HbA1C (%) (28 d), Change in Baseline: Decrease by ([2]; weighted average, all patients on add-on M16αα 40 mg/day, baseline 7.96 ± 0.81): Decrease by 0.48%
transcriptional activity of FoxO1 [3]: suppressing
energy expenditure [4]: increased energy expenditure
insulin-sensitizing and glucose-lowering efficacy [5]: potent insulin-sensitizing and glucose-lowering efficacy
transcriptional activity of SREBP [6]: suppressing
